Values of other authors, collected in patent US9814239B2, “Antimicrobial complexes” (priority 2010, dated 2017).

Key:
Pseudomonas aeruginosa = details: Gram Negative
Proteus vulgaris = details: Gram Negative
Streptococcus faecalis = details: Gram Positive
Aspergillus niger = details: Molds
Saccharomyces cerevisiae = details: Amoeba (so in the source)
Escherichia coli = details: Gram Negative
Bacillus subtilis = details: Gram Positive
Staphylococcus aureus = details: Gram Positive
Salmonella typhimurium = details: Gram Negative
Endomycopsis albicans = details: Yeasts

For `[O-][n+]1ccccc1S` [Sodium Omadine, sodium omadine], the “Bactericide concentration (ppm)” value (Pseudomonas aeruginosa) is given as 128 ppm, the “Bactericide concentration (ppm)” value (Proteus vulgaris) is given as 8 ppm and the “Bactericide concentration (ppm)” value (Streptococcus faecalis) is given as 2 ppm. The “Fungicide concentration (ppm)” value (Aspergillus niger) was <0.25 ppm, the “Fungicide concentration (ppm)” value (Saccharomyces cerevisiae) was <0.25 ppm and the “Bactericide concentration (ppm)” value (Escherichia coli) was 16 ppm. The “Bactericide concentration (ppm)” value (Bacillus subtilis) was 0.5 ppm, the “Bactericide concentration (ppm)” value (Staphylococcus aureus) was 16 ppm and the “Bactericide concentration (ppm)” value (Salmonella typhimurium) was 16 ppm. The “Fungicide concentration (ppm)” value (Endomycopsis albicans) was <0.25 ppm.
